# Laboratory results: patent US9682978B2, “2,6,7 substituted purines as HDM2 inhibitors” (Merck Sharp & Dohme Corp., priority 2013, dated 2017)
# Target: T1, HDM2 (Homo sapiens, UniProt Q00987)
# T1 construct: Thioredoxin (N); made in house; host or cells: E. coli BL21(DE3)Rosetta (pET32a)
# Test: HDM2 FRET assay (inhibition of p53 peptide binding to HDM2)
# Conditions: for IC50: truncated HDM2 residues 17 to 125, 0.5 nM HDM2, 3 nM FITC labeled 8-mer peptide, two hour incubation; for inhibition at 1 µM: Table 1, printed in the FRET IC50 column, at 1000 nM compound
# Source text: Methods: An HDM2 FRET assay was developed to assess the compounds' inhibitory activity towards binding of p53 protein. A truncated version of HDM2 with residues 17 to 125 (containing p53 binding surface, Science (1994) 265, 346-355), with N-terminal His and Thioredoxin tag was generated in pET32a expression vector and expressed in E. coli strain BL21(DE3)Rosetta. Protein was purified using Ni-affinity chromatography, followed by size exclusion chromatography using Superdex 75 26/60 column. To assess inhibition of p53 binding to HDM2, a FITC labeled 8-mer peptide (sequence: Ac-Phe-Arg-Dpr-Ac6c-(6-Br)Trp-Glu-Glu-Leu-NH2; Anal Biochem. 2004 Aug. 1; 331(1):138-46) with strong affinity towards p53 binding pocket of HDM2 was used. The HDM2 assay buffer contained 1× Phosphate Buffered Saline (Invitrogen, Cat#14190), 0.01% BSA (Jackson ImmunoResearch, Cat#001-000-162), 0.01% Tween-20. In the 1× assay buffer recombinant HDM2 protein, peptide and Lumi4-Tb Cryptate-conjugate mouse anti-6×HIS antibody (cisbio, Cat#Tb61HISTLB) were added and transferred to ProxiPlate PLUS (PerkinElmer, Cat#6008269), containing compounds so that final DMSO concentration is 0.1%. Final concentrations of reagents in the assay wells are 0.5 nM HDM2, 0.25 nM anti HIS (Tb label) antibody and 3 nM peptide. After two hour incubation at room temperature in a humidified chamber plates were read on EnVision plate reader with the following settings: excitation: UV, […], two emission filters: 520 nm and 495 nm respectively. Ratio of em520/em495 was used to calculate % inhibition and to obtain IC50 with 4-parameter logistic equation.
# IC50 DETERMINATIONS: Dose-response curves were plotted from the inhibition data, from 10 point serial dilutions of inhibitory compounds. Concentration of compound was plotted against em520/Cem495 ratio signal. To generate IC50 values, the dose-response curves were fitted to a standard sigmoidal curve and IC50 values were derived by nonlinear regression analysis. IC50 values in the above table are rounded to the nearest integer.
# T1 sequence (Q00987 17-125): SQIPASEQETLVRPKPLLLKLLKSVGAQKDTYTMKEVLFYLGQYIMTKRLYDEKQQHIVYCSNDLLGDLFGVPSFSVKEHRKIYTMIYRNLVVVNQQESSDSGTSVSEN
Compound,IC50 (Table 3) [µM],IC50 (Table 2) [µM],other results
"O=c1[nH]c(-c2nc(-c3cccc(Cl)c3)c3c(ncn3C[C@H]3CC[C@H](C(F)(F)F)CC3)n2)no1 [Example 3.2, 3-[6-(3-chlorophenyl)-7-{[trans-4-(trifluoromethyl)cyclohexyl]methyl}-7H-purin-2-yl]-1,2,4-oxadiazol-5(4H)-one]",0.437,,
"C[C@H]1CC[C@H](Cn2cnc3nc(-c4noc(=O)[nH]4)nc(-c4ccnc(Cl)c4)c32)CC1 [Example 2.15, 3-{6-(2-chloropyridin-4-yl)-7-[(trans-4-methylcyclohexyl)methyl]-7H-purin-2-yl}-1,2,4-oxadiazol-5(4H)-one]",,0.188,
"C[C@@H]1CC[C@@H](Cn2cnc3nc(-c4noc(=O)[nH]4)nc(-c4cccc(Cl)c4)c32)CC1(F)F (single isomer, unassigned) [Example 3.15, 3-[6-(3-chlorophenyl)-7-{[(trans)-3,3-difluoro-4-methylcyclohexyl]methyl}-7H-purin-2-yl]-1,2,4-oxadiazol-5(4H)-one]",0.43,,
"C[C@@H](Nc1nc(C(=O)O)nc2ncn(Cc3ccc(C(F)(F)F)cc3)c12)C1CCC1 [Example 1.13, 6-{[(1R)-1-cyclobutylethyl]amino}-7-[4-(trifluoromethyl)benzyl]-7H-purine-2-carboxylic acid]",,,IC50 (Table 1): 0.0816 µM
"C[C@H]1CC[C@H](Cn2cnc3nc(-c4noc(=O)[nH]4)nc(-c4cccc(Br)c4)c32)CC1 [Example 2.8, 3-{6-(3-bromophenyl)-7-[(trans-4-methylcyclohexyl)methyl]-7H-purin-2-yl}-1,2,4-oxadiazol-5(4H)-one]",,0.157,
"C[C@H]1CC[C@H](Cn2cnc3nc(-c4noc(=O)[nH]4)nc(-c4cc(Cl)cnc4O)c32)CC1 [Example 2.16, 3-{6-(5-chloro-2-hydroxypyridin-3-yl)-7-[(trans-4-methylcyclohexyl)methyl]-7H-purin-2-yl}-1,2,4-oxadiazol-5(4H)-one]",,0.0876,
"C[C@H]1CC[C@H](Cn2cnc3nc(-c4noc(=O)[nH]4)nc(-c4cc(Cl)cc(N5CCCC5)c4)c32)CC1 [Example 2.18, 3-{6-(3-chloro-5-pyrrolidin-1-ylphenyl)-7-[(trans-4-methylcyclohexyl)methyl]-7H-purin-2-yl}-1,2,4-oxadiazol-5(4H)-one]",,0.331,
"C[C@@H](Nc1nc(-c2noc(=O)[nH]2)nc2ncn(Cc3ccc(C(F)(F)F)cc3)c12)C1CCC1 [Example 1.14, 3-(6-{[(1R)-1-cyclobutylethyl]amino}-7-[4-(trifluoromethyl)benzyl]-7H-purin-2-yl)-1,2,4-oxadiazol-5(4H)-one]",,,IC50 (Table 1): 0.0216 µM
"C[C@@H](Nc1nc(C(=O)O)nc2ncn(CC3CCC4(CC3)CC4)c12)C1CCC1 [Example 3.4, 6-{[(1R)-1-cyclobutylethyl]amino}-7-(spiro[2.5]oct-6-ylmethyl)-7H-purine-2-carboxylic acid]",2.7,,
"COCCOc1cc(Cl)cc(-c2nc(-c3n[nH]c(=O)o3)nc3ncn(C[C@H]4CC[C@H](C)CC4)c23)c1 [Example 2.23, 5-{6-[3-chloro-5-(2-methoxyethoxy)phenyl]-7-[(trans-4-methylcyclohexyl)methyl]-7H-purin-2-yl}-1,3,4-oxadiazol-2(3H)-one]",,0.132,
"CC1=C(F)CC(Cn2cnc3nc(-c4noc(=O)[nH]4)nc(N[C@H](C)C4CCC4)c32)CC1 (mixture of isomers) [Example 3.6, 3-(6-{[(1R)-1-cyclobutylethyl]amino}-7-[(3-fluoro-4-methylcyclohex-3-en-1-yl)methyl]-7H-purin-2-yl)-1,2,4-oxadiazol-5(4H)-one]",0.149,,
"C[C@@H](Nc1nc(C(=O)O)nc2ncn(C[C@H]3CC[C@H](C)CC3)c12)C1CCC1 [Example 1.2, 6-{[(1R)-1-cyclobutylethyl]amino}-7-[(trans-4-methylcyclohexyl)methyl]-7H-purine-2-carboxylic acid]",,,IC50 (Table 1): 0.0685 µM
"CCC1CCC(Cn2cnc3nc(C(=O)O)nc(N[C@H](C)C4CCC4)c32)C1 (single isomer, unassigned) [Example 3.11]",0.677,,
"C[C@@H](Nc1nc(C(=O)NS(=O)(=O)N(C)C)nc2ncn(C[C@H]3CC[C@H](C)CC3)c12)C1CCC1 [Example 1.4, 6-{[(1R)-1-cyclobutylethyl]amino}-N-(dimethylsulfamoyl)-7-[(trans-4-methylcyclohexyl)methyl]-7H-purine-2-carboxamide]",,,IC50 (Table 1): 0.733 µM
"CC([C@H]1CC[C@H](C)CC1)n1cnc2nc(-c3noc(=O)[nH]3)nc(N[C@H](C)C3CCC3)c21 (single isomer, unassigned) [Example 3.17]",0.421,,
"C[C@@H]1CC[C@@H](Cn2cnc3nc(-c4noc(=O)[nH]4)nc(-c4cccc(Cl)c4)c32)CC1(F)F (single isomer, unassigned) [Example 3.16, 3-[6-(3-chlorophenyl)-7-{[(trans)-3,3-difluoro-4-methylcyclohexyl]methyl}-7H-purin-2-yl]-1,2,4-oxadiazol-5(4H)-one]",0.848,,
"CCC1CCC(Cn2cnc3nc(-c4noc(=O)[nH]4)nc(N[C@H](C)C4CCC4)c32)C1 (single isomer, unassigned) [Example 3.14]",0.189,,
"CC1(C)CCCN(c2nc(-c3noc(=O)[nH]3)nc3ncn(C[C@H]4CC[C@H](C)CC4)c23)C1 [Example 1.12, 3-{6-(3,3-dimethylpiperidin-1-yl)-7-[(trans-4-methylcyclohexyl)methyl]-7H-purin-2-yl}-1,2,4-oxadiazol-5(4H)-one]",,,inhibition at 1 µM: 43%
"C[C@@H](Nc1nc(-c2noc(=O)[nH]2)nc2ncn(C[C@H]3CC[C@H](C)CC3)c12)C1CCC1 [Example 1.7, 3-(6-{[(1R)-1-cyclobutylethyl]amino}-7-[(trans-4-methylcyclohexyl)methyl]-7H-purin-2-yl)-1,2,4-oxadiazol-5(4H)-one]",,,IC50 (Table 1): 0.0513 µM
"COc1cc(Cl)cc(-c2nc(-c3noc(=O)[nH]3)nc3ncn(C[C@H]4CC[C@H](C)CC4)c23)c1 [Example 2.6, 3-{6-(3-chloro-5-methoxyphenyl)-7-[(trans-4-methylcyclohexyl)methyl]-7H-purin-2-yl}-1,2,4-oxadiazol-5(4H)-one]",,0.312,
"CCC1CCC(Cn2cnc3nc(-c4noc(=O)[nH]4)nc(N[C@H](C)C4CCC4)c32)C1 (mixture of isomers) [Example 3.10, 3-(6-(((R)-1-cyclobutylethyl)amino)-7-((3-ethylcyclopentyl)methyl)-7H-purin-2-yl)-1,2,4-oxadiazol-5(4H)-one]",0.313,,
"COc1cccc(Oc2nc(-c3noc(=O)[nH]3)nc3ncn(C[C@H]4CC[C@H](C)CC4)c23)c1 [Example 1.9, 3-{6-(3-methoxyphenoxy)-7-[(trans-4-methylcyclohexyl)methyl]-7H-purin-2-yl}-1,2,4-oxadiazol-5(4H)-one]",,,inhibition at 1 µM: 39%
"C[C@H]1CC[C@H](Cn2cnc3nc(-c4noc(=O)[nH]4)nc(-c4cc(Cl)cc(C(F)(F)F)c4)c32)CC1 [Example 2.11, 3-{6-[3-chloro-5-(trifluoromethyl)phenyl]-7-[(trans-4-methylcyclohexyl)methyl]-7H-purin-2-yl}-1,2,4-oxadiazol-5(4H)-one]",,0.172,
"C[C@H]1CC[C@H](Cn2cnc3nc(-c4noc(=O)[nH]4)nc(-c4cc(Cl)ccc4O)c32)CC1 [Example 2.5, 3-{6-(5-chloro-2-hydroxyphenyl)-7-[(trans-4-methylcyclohexyl)methyl]-7H-purin-2-yl}-1,2,4-oxadiazol-5(4H)-one]",,0.842,
"C[C@H]1CC[C@H](Cn2cnc3nc(-c4noc(=O)[nH]4)nc(-c4cc(O)cc(Cl)c4)c32)CC1 [Example 2.7, 3-{6-(3-chloro-5-hydroxyphenyl)-7-[(trans-4-methylcyclohexyl)methyl]-7H-purin-2-yl}-1,2,4-oxadiazol-5(4H)-one]",,0.111,
"C[C@H]1CC[C@H](Cn2cnc3nc(-c4noc(=O)[nH]4)nc(N4CCCC(F)(F)C4)c32)CC1 [Example 1.6, 3-{6-(3,3-difluoropiperidin-1-yl)-7-[(trans-4-methylcyclohexyl)methyl]-7H-purin-2-yl}-1,2,4-oxadiazol-5(4H)-one]",,,IC50 (Table 1): 0.82 µM
"C[C@H]1CC[C@H](Cn2cnc3nc(-c4noc(=O)[nH]4)nc(-c4cc(Cl)ccn4)c32)CC1 [Example 2.3, 3-{6-(4-chloropyridin-2-yl)-7-[(trans-4-methylcyclohexyl)methyl]-7H-purin-2-yl}-1,2,4-oxadiazol-5(4H)-one]",,0.251,
